In ChEMBL document CHEMBL3124795, “Synthesis and antiproliferative evaluation of 13-aryl-13H-benzo[g]benzothiazolo [2,3-b]quinazoline-5,14-diones” (Bioorg Med Chem Lett, 2014):

Assays:
HepG2 = test: Antiproliferative activity against human HepG2 cells after 48 hrs by MTT assay; type: functional, cell-based; conditions: HepG2, 48 h
HEK293 = test: Antiproliferative activity against human HEK293 cells after 48 hrs by MTT assay; type: cell-based; conditions: HEK293, 48 h
HeLa = test: Antiproliferative activity against human HeLa cells after 48 hrs by MTT assay; type: functional, cell-based

Structure (SMILES)	IC50 (HepG2)	IC50 (HeLa)	IC50 (HEK293)
O=C1C2=C(C(=O)c3ccccc31)C(c1cccs1)N1C(=N2)Sc2ccccc21 (configuration not stated)	5.76 µM	4.23 µM	5.9 µM
O=C1C2=C(C(=O)c3ccccc31)C(c1ccc(F)cc1)N1C(=N2)Sc2ccccc21 (configuration not stated)	9.4 µM	3.96 µM	15.1 µM
COc1cccc2c1C(=O)c1c(O)c3c(c(O)c1C2=O)C[C@@](O)(C(=O)CO)C[C@@H]3O[C@H]1C[C@H](N)[C@H](O)[C@H](C)O1 [DOXORUBICIN]	1.15 µM		1.06 µM
O=C1C2=C(C(=O)c3ccccc31)C(c1ccco1)N1C(=N2)Sc2ccccc21 (configuration not stated)	9.07 µM	6.62 µM	10.1 µM
O=C1C2=C(C(=O)c3ccccc31)C(c1ccc(Cl)cc1)N1C(=N2)Sc2ccccc21 (configuration not stated)	23.4 µM	15.6 µM	25.9 µM
O=C1C2=C(C(=O)c3ccccc31)C(c1ccc([N+](=O)[O-])cc1)N1C(=N2)Sc2ccccc21 (configuration not stated)	14.3 µM	29 µM	50.3 µM
O=C1C2=C(C(=O)c3ccccc31)C(c1ccccc1)N1C(=N2)Sc2ccccc21 (configuration not stated)	1.66 µM	2.99 µM	4.16 µM

Further lines, with some results ahead:

IC50 (HepG2)	IC50 (HeLa)	Structure (SMILES)	IC50 (HEK293)
1.7 µM	3.81 µM	Cc1ccc(C2C3=C(N=C4Sc5ccccc5N42)C(=O)c2ccccc2C3=O)cc1 (configuration not stated)	5.18 µM
5.03 µM	9.32 µM	COc1cc(C2C3=C(N=C4Sc5ccccc5N42)C(=O)c2ccccc2C3=O)cc(OC)c1OC (configuration not stated)	11 µM
3.56 µM	2.68 µM	O=C1C2=C(C(=O)c3ccccc31)C(c1ccc(Cl)cc1Cl)N1C(=N2)Sc2ccccc21 (configuration not stated)	4.9 µM
190 µM	125 µM	COc1ccc(OC)c(C2C3=C(N=C4Sc5ccccc5N42)C(=O)c2ccccc2C3=O)c1 (configuration not stated)	> 200 µM
